Test results published in PubChem BioAssay (NCI).
Values joined by “and” are separate entries in the source; they are usually repeats but may differ in a detail not shown here. Equal entries are not always repeated.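 Cultured in 96-well plates, cells were exposed to test compound for 48 hours across five concentrations. Abbreviation: GI50, concentration required for 50% inhibition of growth. Definition used: TGI = concentration required for complete inhibition of growth.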

Legend:
Experiment in all cases: DTP human tumour cell line panel, 48 h
[1] = test system: NCI-H522 lung
[2] = test system: HCT-116 colon
[3] = test system: MOLT-4 leukemia
[4] = test system: NCI/ADR-RES ovarian
[5] = test system: NCI-H460 lung
[6] = test system: COLO 205 colon
[7] = test system: CCRF-CEM leukemia
[8] = test system: UO-31 renal
[9] = test system: RPMI-8226 leukemia
[10] = test system: DU-145 prostate

Row | SMILES | TGI [1] | TGI [2] | TGI [3] | TGI [4] | TGI [5] | TGI [6] | TGI [7] | TGI [8] | TGI [9] | TGI [10] | GI50 [1] | GI50 [2] | GI50 [3] | GI50 [4] | GI50 [5] | GI50 [6] | GI50 [8] | GI50 [9] | GI50 [10] | GI50 [7]
1 | O=C(OC(C(=O)O)C(OC(=O)c1ccccc1)C(=O)O)c1ccccc1 (configuration not stated) (tested in a mixture with another compound) | 55.4 µM | 55 µM | > 100 µM | > 100 µM | > 100 µM | > 100 µM and 16.6 µM | > 100 µM | > 100 µM | > 100 µM | > 100 µM |  |  |  |  |  |  |  |  |  | 
2 | C=C(C)C(=O)NC(N)=NC#N | 16.4 µM and 5.88 µM | 257 µM | 52.2 µM and 255 µM | > 83.8 µM and 267 µM | 306 µM | 206 µM | 59.9 µM and 60.5 µM | > 92.1 µM and 265 µM | 44.9 µM and 120 µM | 291 µM | 2.26 µM | 131 µM | 21.5 µM and 46.7 µM | 125 µM | 163 µM | 80.5 µM | 134 µM | 24.7 µM | 145 µM | 
3 | CC(C)(Cl)CCC1=C(Cl)C(=O)c2ccccc2C1=O | 1.91 µM | 3.19 µM | 6.04 µM | 19.5 µM | 12.4 µM | 4.12 µM | 4.79 µM | 3.15 µM | 4.65 µM | 18.2 µM | 0.586 µM | 1.59 µM | 1.91 µM | 3.29 µM | 3.31 µM | 2.07 µM | 1.59 µM | 1.78 µM | 6.12 µM | 1.22 µM
4 | O=c1[nH]cnc2c(C3OC(CO)C(O)C3O)[nH]nc12 (configuration not stated) | 42.7 µM | > 100 µM | 81 µM | > 100 µM | > 100 µM | > 100 µM | > 100 µM | > 100 µM | > 100 µM | 38.2 µM |  |  |  |  |  |  |  |  |  | 
5 | CN1CCN(C(=O)c2ccc(NC(=O)Nc3ccc(N(C)c4ccnc(Nc5ccc(CS(C)(=O)=O)cc5)n4)cc3)cc2)CC1 | > 25 µM | > 25 µM | > 25 µM | > 25 µM | > 25 µM | > 25 µM | > 25 µM | > 25 µM | > 25 µM | > 25 µM | 7.65 µM | 10.1 µM | 9.25 µM | > 25 µM | 11.8 µM | 13 µM | > 25 µM | 8.85 µM | 8.78 µM | 7.07 µM
6 | CS(=O)(=O)c1ccc(N/N=C/c2c(-c3ccc(S(C)(=O)=O)cc3)[nH]c3ccc(F)cc23)cc1 | > 50 µM | > 50 µM | > 50 µM | > 50 µM | > 50 µM | > 50 µM | > 50 µM | > 50 µM | 2.9 µM | > 50 µM | 2.08 µM | 2.68 µM | 1.19 µM | > 50 µM | 1.77 µM | 2.86 µM | 2.16 µM | 1.15 µM | 2.75 µM | 1.2 µM
7 | C#C[C@@]1(O)[C@@H](CO)O[C@@H](n2cc(Cl)c3c(N)ncnc32)[C@@H]1O | 0.455 µM | > 100 µM | > 26.4 µM | 0.777 µM | 0.412 µM | 0.379 µM | > 100 µM | 1.78 µM | 0.607 µM | > 52 µM | 0.134 µM | 0.0221 µM | 0.17 µM | 0.0546 µM | < 0.0215 µM | 0.106 µM | 0.173 µM | 0.151 µM | 0.131 µM | 0.248 µM
8 | CNC(=O)c1ccc(Nc2ncc(C(F)(F)F)c(NCc3nccnc3N(C)S(C)(=O)=O)n2)cc1 | 7.06 µM and 13.3 µM and 7.4 µM | > 10 µM and 10.5 µM and 15.1 µM | 9.97 µM and 8.58 µM and 8.76 µM | > 10 µM and 25.9 µM and 27.1 µM | > 10 µM and 10.2 µM and 11.1 µM | 2.91 µM and 2.78 µM and 3.17 µM |  | 5.12 µM and 6.97 µM and 8.22 µM | 6.9 µM and 8.16 µM and 7.58 µM | > 10 µM and 10.9 µM and 15.9 µM | 1.97 µM and 2.52 µM and 2.76 µM | 2.08 µM and 2.4 µM and 1.71 µM | 3.25 µM and 2.64 µM and 3.09 µM | 8.27 µM and 8.53 µM | 2.05 µM and 2.75 µM and 2.16 µM | 1.32 µM and 1.37 µM and 1.39 µM | 1.03 µM and 1.94 µM and 2.14 µM | 2.59 µM and 2.95 µM and 2.27 µM | 2.6 µM and 2.1 µM and 2.75 µM | 3.27 µM and 3.21 µM and 3.36 µM
9 | Cc1cc(NC(=O)c2ccc(NS(=O)(=O)CCO)cc2N2CCC3(CC2)CC3)nc(N2CCC(F)(F)CC2)n1 | 27.3 µM | 26.8 µM | 33.1 µM | 16.1 µM | 26.8 µM | 28.4 µM | > 66 µM | 23.8 µM | 33.4 µM | 15.8 µM | 12.9 µM | 11.7 µM | 12.1 µM | 0.428 µM | 12.6 µM | 11 µM | 11.4 µM | 9.74 µM | 0.0531 µM | 10 µM
10 | CCCCCCCCCCCCCOC(=O)c1c(C)[nH]c(/C=C2\N=C(c3ccc[nH]3)C=C2OC)c1C | > 64.3 µM |  | > 100 µM | > 100 µM | > 100 µM | > 100 µM | > 100 µM | 0.443 µM | > 100 µM | > 78.9 µM | 0.215 µM | < 0.0122 µM | 0.0807 µM | 0.116 µM | < 0.017 µM | 0.0583 µM | 0.103 µM | 0.0498 µM | 0.0427 µM | 0.0303 µM
11 | O=S(=O)(NCCNc1cc(-c2cn(-c3ccccc3)nc2-c2cccc(O)c2)ccn1)c1ccc(C(F)(F)F)cc1 | 3.8 µM | 7.94 µM | 5.71 µM | 16.6 µM | 10.1 µM | 4 µM | 8.05 µM | 4.28 µM | 7.85 µM | 15.9 µM | 1.67 µM | 2.29 µM | 2.05 µM | 3.21 µM | 3.23 µM | 1.81 µM | 1.81 µM | 2.77 µM | 4.44 µM | 3.27 µM
